Consider 11 compounds from patent US11685711B2, “Carbon monoxide-releasing molecules triggered by physiological stimuli” (Georgia State University Research Foundation, Inc., priority 2017, dated 2023).

Where two headings read alike, the source gives them in different places. A value given as a limit tells only on which side of the number the result lay.

One data set deals with Raw 264.7 cells. The data set can be described thus: Cytotoxicity against Raw 264.7 cells (Cell Counting Kit-8). As to conditions: concentrations up to 50 μM, 24 h of incubation. The data set is classed as cell-based. As to the method: All CO prodrugs were initially screened for their cytotoxicity against Raw 264.7 cells. […] Then RAW 264.7 cells were incubated in DMEM containing 1% DMSO and compounds (0-50 μM) for 24 hours. Then 10 μL of Cell Counting Kit-8 solution was added to each well and incubated for another three hours at 37° C. The absorbance at […] was measured by using a microplate reader.
For orientation: Formazan colour is commonly taken as a measure of viable cells.

The next data set is described as follows: physchem. The format is physicochemical. As to the method:
A solution of 10/11 (20 μM) and NaClO (40 or 60 μM) in 10% of ACN in PBS (pH=7.4) was sealed and incubated at 37° C. At each defined time point, 500 μL of the reaction mixture was taken out and added into a vial containing Na2SO3 (100 μL, 250 mM) to quench the reaction. The resulting solution was then analyzed by HPLC (column: Waters C18 3.5 μM, 4.6×100 mm, injection loop volume: 20 μL). CO release was determined by monitoring the formation of the product and the consumption of the reaction intermediate as in the case of 10 or prodrug 11. The mobile phase was acetonitrile ACN/H2O (containing 0.05% trifluoroacetic acid).

The subject of data set [1] is Hela cells. The data set can be described thus: Crystal violet assay, co-treatment with doxorubicin. As to conditions: 24 h; for synergistic effects with Dox in killing Hela cells: co-treatment with Dox.
Experimental: (§2) Towards this end, Hela cells and H9C2 cells were co-treated with 11/12 and Dox for 24 h. Then the cells were subjected to crystal violet assay for cytotoxicity evaluation. The cells treated with 11/12, or Dox only were used as controls. Additionally, the cells co-treated with Dox and compound 10a/11a/11b were employed as additional controls as well.
(§3) Hela cells and H9C2 cells were seeded in 96-well plates and cultured in DMEM supplemented with 10% FBS and 1% penicillin/streptomycin at 37° C. under 5% CO2 for 24 h. The cells were either incubated with doxorubicin (1% DMSO DMEM solution, 0 to 4 μM) or a mixture of doxorubicin and indicated compounds (1% DMSO DMEM solution, 0 to 4 μM for doxorubicin) for 24 h. After removal of the medium, the plate was washed with 150 μL/well of PBS and the cell was fixed with 4% paraformaldehyde for 1 h at room temperature. The solution in the well was then removed and 100 μL of 0.5% crystal violet staining solution was added to each well. After incubation for 15 min at room temperature, the plate was washed with 200 μL of DI water for each well twice, followed by the addition of 100 μL/well of acetic acid solution (33%) to dissolve the dye. Absorbance at 615 nm was then measured by using a Perkin Elmer 1420 multi-label counter. Cell viability was measured and the results were normalized to the vehicle group. The experiment was triplicated and the results are expressed as mean±SD (n=3).
Data set [2] can be described thus: Sensitivity of 11 to various ROS (HPLC, formation of 11a). The format is physicochemical. As to the method:
The CO release profiles in the absence/presence of ROS was studied using HPLC to monitor the consumption of 10/11 and the formation of 10a/11a. Various ROS solutions were prepared according to literature procedures. A solution of 11 (400 μL, 1 mM in acetonitrile (ACN) was added to 20 mL of PBS (pH 7.4, 10 mM). […] Additional ACN was added to make the final solution contain 10% of ACN. The resulting mixture was incubated at 37° C. for 30 min. CO release was monitored by the formation of 11a using HPLC. The experiment was triplicated, and the results are reported as mean±SD (n=3).

Data set [3] in a line: Stability in the absence of ROS (HPLC). The format is physicochemical. As to the method: Initially, 11 was employed to screen its sensitivity towards various ROS. […] The stability was tested by adding a solution of 11/12 (800 μL, 500 μM in acetonitrile) was added to 20 mL of PBS (pH 7.4, 10 mM) in a vial. Additional acetonitrile was added to make the final concentration of ACN 10% for all solutions. The resulting solution was incubated at 37° C. for 48 h. The solution was then analyzed using HPLC. All the experiments were triplicated, and the results are reported as mean±SD (n=3).

The next data set has as its system Raw264.7 cells. The data set can be described thus: Fluorescent imaging of CO release of 11 with COP-1, with or without LPS. The data set is classed as cell-based. As to conditions: Raw 264.7 cells, 11 50 μM + COP-1 1 μM + LPS 1 μg/mL, 5 hours. How it is done: For imaging studies of 11 in transformed macrophage cells, RAW 264.7 cells were seeded in 6-well plates one day before the imaging experiment. Compounds were dissolved in DMSO as stock solution. Final concentration of 1 μM COP-1, 50 μM of 11 and 1 μg/mL of LPS were added into the cell culture. The cells without 11 was used as the negative control. After adding the compound, the cells were incubated at 37° C. for 5 hours. The cells were then fixed and taken for fluorescent images under the FITC channel (excitation: 490 nm, emission: 525 nm) using a Zeiss fluorescent microscope.

The test system of data set [4] is H9C2 cells. The data set can be described thus: Fluorescent imaging of CO release of 11 with COP-1. The format is cell-based. As to conditions: 11 50 μM + COP-1 1 μM. How it is done: (§1) Hela or H9C2 cells were seeded in 6-well plates one day before the imaging experiment. Compound 11 was dissolved in DMSO as stock solution. Final concentrations of 1 μM for COP-1 and […] were added into the cell culture. The sample without 11 was used as the negative control. After adding the compound, the cells were incubated at 37° C. for 5 hours. The cells were then fixed and taken for fluorescent images under the FITC channel (excitation: 490 nm, emission: 525 nm) using a Zeiss fluorescent microscope.

Data set [5] concerns Hela cells. The data set can be described thus: Fluorescent imaging of CO release of 11 with COP-1. The format is cell-based. As to conditions: 11 50 μM + COP-1 1 μM, 5 hours. As to the method:
as §1

The subject of data set [6] is H9C2 cells. The data set can be described thus: Crystal violet assay, co-treatment with doxorubicin and cytotoxicity. The format is cell-based.
Experimental: as §2
Hela cells and H9C2 cells were seeded in 96-well plates and cultured in DMEM supplemented with 10% FBS and 1% penicillin/streptomycin at 37° C. under 5% CO2 for 24 h. The cells were either incubated with doxorubicin (1% DMSO DMEM solution, 0 to 4 μM) or a mixture of doxorubicin and indicated compounds (1% DMSO DMEM solution, 0 to 4 μM for doxorubicin) for 24 h. After removal of the medium, the plate was washed with 150 μL/well of PBS and the cell was fixed with 4% paraformaldehyde for 1 h at room temperature. The solution in the well was then removed and 100 μL of 0.5% crystal violet staining solution was added to each well. […] Absorbance at 615 nm was then measured by using a Perkin Elmer 1420 multi-label counter. Cell viability was measured and the results were normalized to the vehicle group. The experiment was triplicated and the results are expressed as mean±SD (n=3).
The subject of data set [7] is Hela cells.
Experimental: as §2, §3
The subject of a further data set is porcine liver esterase. Put plainly: CO release kinetics in the presence of porcine liver esterase (HPLC). The data set is classed as in vitro ADME. How it is done:
[…] At each defined time point, 250 μL of the reaction mixture was taken out and added into a vial containing 500 μL ethanol. The mixture was incubated in an acetone dry ice bath (−78° C.) for 5 min, and centrifuged for 9 min (14.5×1000 rp) to precipitate the esterase out. The resulting supernatant was then analyzed by HPLC (column: Waters C18 3.5 μM, 4.6×100 mm, injection loop volume: 20 μL). […] The mobile phase was acetonitrile CH3CN/H2O (containing 0.05% trifluoroacetic acid).

Data set [8] in a line: CO release kinetics of 38 with or without H2O2 (HPLC). The format is physicochemical. As to conditions: 20% of DMSO/PBS, 37° C., read-out: beta-elimination half-life (converted). As to the method: Solutions of 38 (20 μM) in 20% of DMSO/PB S was incubated with or without H2O2 (270 μM) at 37° C. Aliquots were taken for HPLC analysis to determine CO release kinetics by monitoring the formation of compound 25. HPLC was conducted using a Waters C18 column (3.5 LM, 4.6x 100 mm) equipped with a 20-μL injection loop and acetonitrile:water (85:15) as the mobile phase.

On to `C[C@@]12C(=O)[C@](C)(C(c3ccccc3)=C1c1ccccc1)C(S(=O)(=O)c1ccccc1)C2C=O` (stereo partly drawn) [Compound 7, (1S,4S)-1,4-dimethyl-7-oxo-5,6-diphenyl-3-(phenylsulfonyl)bicyclo-[2.2.1]hept-5-ene-2-carbaldehyde], for which the “cytotoxicity (cell viability)” value in the data set with Raw 264.7 cells is “no cytotoxicity was observed”.
Turning to `CC12CC([Se]c3ccccc3)C(C)(C1=O)C(c1ccccc1)=C2c1ccccc1` (stereo not drawn) [Compound 10, 1,4-dimethyl-2,3-diphenyl-5-(phenylselanyl)bicyclo[2.2.1]hept-2-en-7-one], the “half-life of selenoxide elimination / CO release” value in the data set “physchem” (20 µM, pH 7.4) was “around 4 h”. For the same compound, in “physchem” (initial hypochlorite concentration of 40 μM, 37° C.), the “time to finish the oxidation step” value is 30 s.
Consider `Cc1ccc(C)c(-c2ccccc2)c1-c1ccccc1` [Compound 10a, 3′,6′-Dimethyl-1,1′:2′,1″-terphenyl], for which the “synergistic effects with Dox in killing Hela cells” value in the data set on Hela cells [1] (Hela cells) is “no synergistic effects were observed”.
In general, half-life refers to how long it takes for the measured level to halve. As to `COC(=O)C1([Se]c2ccccc2)CC2(C)C(=O)C1(C)C(c1ccccc1)=C2c1ccccc1` (stereo not drawn) [Compound 11, Methyl-1,4-dimethyl-7-oxo-5,6-diphenyl-2-(phenylselanyl)bicyclo[2.2.1]hept-5-ene-2-carboxylate], the “transformation within 30 min” value in [2] (hydrogen peroxide (H2O2, 1 mM), 37° C.) is reported as “less than 5%”; in data set [2] (hydroxyl radical (HO., 500 μM), 37° C.) it was “less than 5%”; in [2] (tert-butoxy radical (tBuO·, 500 μM), 37° C.) it was “less than 5%”; in data set [2] (tert-butyl hydroperoxide (TBHP, 500 μM), 37° C.), “less than 5%”. The “time to complete transformation from 11 to 11a” value in data set [2] (hypochlorite (40 μM) at 37° C.) amounted to 30 min. The “sensitivity towards ROS” value in data set [2] (hypochlorite (ClO−), singlet oxygen (1O2) and O2−, 37° C.) is on record as “very sensitive”. The “formation of 11a” value in data set [3] (absence of hypochlorite, 48 h of incubation) is recorded as “no formation of 11a was observed”. Besides, in the data set “physchem” (pH 7.4), the half-life at 20 µM is around 30 s. For the same compound, the “intracellular CO release (green fluorescence) with LPS vs without LPS” value in the data set on Raw264.7 cells is given as “significantly enhanced green fluorescence”. Moreover, the “intracellular CO release” value in the data set with H9C2 cells [4] is recorded as “negligible CO release”. The “intracellular CO release (green fluorescence) compared with H9C2 cells” value in the data set on Hela cells [5] is “much enhanced green fluorescence”. In the data set on H9C2 cells [6] (H9C2 cells, co-treatment with Dox, 24 h), the “synergistic effects with Dox in killing H9C2 cells” value was “no synergistic effects were observed”. For the same compound, in the data set on Hela cells [7], the “cell viability, compound only” value is “no decrease in cell viability was observed”. Besides, the “synergistic effects with Dox in killing Hela cells” value in the data set on Hela cells [1] (Hela cells) is “synergistically”.
With `COC(=O)c1cc(C)c(-c2ccccc2)c(-c2ccccc2)c1C` [Compound 11a, Methyl 3′,6′-dimethyl-[1,1′:2′,1″-terphenyl]-4′-carboxylate], the “synergistic effects with Dox in killing Hela cells” value in the data set with Hela cells [1] (Hela cells) was “no synergistic effects were observed”.
On the same count and under the same terms, to `COC(=O)C1([Se]c2ccccc2)CC2(C)CC1(C)C(c1ccccc1)=C2c1ccccc1` (stereo not drawn) [Compound 11b, methyl 1,4-dimethyl-5,6-diphenyl-2-(phenylselanyl)bicyclo-[2.2.1]hept-5-ene-2-carboxylate, reference compound] belongs “no synergistic effects were observed”.
In the case of `CC12CC([Se]c3ccccc3)(C(=O)NCCC[P+](c3ccccc3)(c3ccccc3)c3ccccc3)C(C)(C1=O)C(c1ccccc1)=C2c1ccccc1` (stereo not drawn) [Compound 12, (3-(1,4-dimethyl-7-oxo-5,6-diphenyl-2-(phenylselanyl)bicyclo [2.2.1]hept-5-ene-2-carboxamido)propyl)triphenylphosphonium], the “stability in the absence of ROS” value in [3] (10% ACN in PBS (pH 7.4), 37° C., 48 hours) is listed as “very stable”. In addition, the “cytotoxicity against H9C2 cells” value in the data set on H9C2 cells [6] (5 μM, 24 h of incubation) is recorded as “showed toxicity”. For the same compound, the cell viability entry with Hela cells [1] (Hela cells, 2 μM Dox in combination with 12 (2.5 μM)) was “around 20%”. The “synergistic effects with Dox in killing Hela cells” value in the data set on Hela cells [1] (Hela cells) is recorded as “synergistically”. In addition, the “cell viability, compound only” value with Hela cells [1] (Hela cells, without Dox (0-μM group)) was “no decrease in cell viability was observed”.
For `CC(=O)OC(OC(C)=O)C1C(S(=O)(=O)c2ccccc2)[C@]2(C)C(=O)[C@]1(C)C(c1ccccc1)=C2c1ccccc1` (stereo partly drawn) [Compound 24a, ((1S,4S)-1,4-Dimethyl-7-oxo-5,6-diphenyl-3-(phenylsulfonyl)bicyclo [2.2.1]hept-5-en-2-yl)methylene diacetate], in the data set on porcine liver esterase (porcine liver esterase (3 U/mL), 5% of DMSO in PBS (pH 7.4), 37° C.), the “time to total consumption of prodrug (to form compound 23)” value is given as at most 2 min.
As to `CC(C)(C)C(=O)OC(OC(=O)C(C)(C)C)C1C(S(=O)(=O)c2ccccc2)[C@]2(C)C(=O)[C@]1(C)C(c1ccccc1)=C2c1ccccc1` (stereo partly drawn) [Compound 24d, ((1S,4S)-1,4-Dimethyl-7-oxo-5,6-diphenyl-3-(phenylsulfonyl)bicyclo [2.2.1]hept-5-en-2-yl)methylene bis(2,2-dimethylpropanoate)], in the data set on porcine liver esterase (in the presence of PLE, after 24 h of incubation), the esterase-mediated hydrolysis result was “no hydrolysis was observed”.
With `CCCCCSC1C(C=O)C2(C)C(=O)C1(C)C(c1ccccc1)=C2c1ccccc1` (stereo not drawn) [Compound 38], the half-life at 20 µM was around 1.5 h in [8] (20% DMSO in PBS with H2O2 (270 µM), H2O2 (270 μM)) and around 24 h in data set [8] (20% DMSO in PBS, without H2O2).
By viability is commonly meant a read-out of living cells in per cent, often relative to untreated cells. On to `COc1cccc2c1C(=O)c1c(O)c3c(c(O)c1C2=O)C[C@@](O)(C(=O)CO)C[C@@H]3O[C@H]1C[C@H](N)[C@H](O)[C@H](C)O1` [Dox, doxorubicin, reference compound], for which the viability at 2 µM in the data set with Hela cells [1] (Homo sapiens, HeLa, read-out: cell viability) is around 80%.
